# Values quoted from earlier work as cited in PMC3433420 (PLoS ONE, 2012).
# Read-outs that look alike come from different tables or passages of the source.
# What was measured:
# SH2 and PTB domains = conditions: most recent PM interactions, cited from earlier work
# Text: Supplement pone.0044471.s022.xlsx, sheet "Most recent PM interactions" | column: Kd || Supplement pone.0044471.s022.xlsx, sheet "All original PM interactions" | column: Kd
# GRB7 SH2 domain = GRB7 SH2 domain (Homo sapiens, UniProt Q14451); design: 6X His; thioredoxin; made in house; host or cells: E. coli BL21(DE3)pLysS; conditions: Protein GRB7, most recent PM interactions, cited from earlier work
# GRB7 SH2 domain, sequence (Q14451 431-527 limits assumed): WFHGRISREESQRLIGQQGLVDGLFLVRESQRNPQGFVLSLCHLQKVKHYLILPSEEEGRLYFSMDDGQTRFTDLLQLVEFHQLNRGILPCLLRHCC
substance,measurement,setting,value
AFSPAFDNLpYYWDQDPPE [ErbB2 1221],Kd,"SH2 and PTB domains; Protein ABL2, ref Jones et al. 2006 / Kaushansky et al. Chem and Biol 2008",0.5 µM
same,Kd,"SH2 and PTB domains; Protein BLK, ref Jones et al. 2006 / Kaushansky et al. Chem and Biol 2008",0.63 µM
same,Kd,"SH2 and PTB domains; Protein BLNK, ref Jones et al. 2006 / Kaushansky et al. Chem and Biol 2008",1.56 µM
same,Kd,"SH2 and PTB domains; Protein FGR, ref Jones et al. 2006 / Kaushansky et al. Chem and Biol 2008",0.42 µM
same,Kd,"SH2 and PTB domains; Protein GRB10, ref Jones et al. 2006 / Kaushansky et al. Chem and Biol 2008",0.12 µM
same,Kd,"SH2 and PTB domains; Protein GRB14, ref Jones et al. 2006 / Kaushansky et al. Chem and Biol 2008",1.4 µM
same,Kd,"SH2 and PTB domains; Protein ITK, ref Jones et al. 2006 / Kaushansky et al. Chem and Biol 2008",0.78 µM
same,Kd,"SH2 and PTB domains; Protein LYN, ref Jones et al. 2006 / Kaushansky et al. Chem and Biol 2008",0.93 µM
same,Kd,"SH2 and PTB domains; Protein PIK3R1-NC, ref Jones et al. 2006 / Kaushansky et al. Chem and Biol 2008",1.16 µM
same,Kd,"SH2 and PTB domains; Protein PIK3R2-N, ref Jones et al. 2006 / Kaushansky et al. Chem and Biol 2008",0.95 µM
same,Kd,"SH2 and PTB domains; Protein PIK3R3-C, ref Jones et al. 2006 / Kaushansky et al. Chem and Biol 2008",1.91 µM
same,Kd,"SH2 and PTB domains; Protein PLCG1-N, ref Jones et al. 2006 / Kaushansky et al. Chem and Biol 2008",1.93 µM
same,Kd,"SH2 and PTB domains; Protein PLCG1-NC, ref Jones et al. 2006 / Kaushansky et al. Chem and Biol 2008",1.96 µM
same,Kd,"SH2 and PTB domains; Protein PLCG2-N, ref Jones et al. 2006 / Kaushansky et al. Chem and Biol 2008",0.17 µM
same,Kd,"SH2 and PTB domains; Protein RASA1-N, ref Jones et al. 2006 / Kaushansky et al. Chem and Biol 2008",0.19 µM
same,Kd,"SH2 and PTB domains; Protein RASA1-NC, ref Jones et al. 2006 / Kaushansky et al. Chem and Biol 2008",0.51 µM
same,Kd,"SH2 and PTB domains; Protein SH2D3A, ref Jones et al. 2006 / Kaushansky et al. Chem and Biol 2008",1.28 µM
same,Kd,"SH2 and PTB domains; Protein SH2D3C, ref Jones et al. 2006 / Kaushansky et al. Chem and Biol 2008",0.16 µM
same,Kd,"SH2 and PTB domains; Protein SHB, ref Jones et al. 2006 / Kaushansky et al. Chem and Biol 2008",0.21 µM
same,Kd,"SH2 and PTB domains; Protein SHC1-PTB, ref Jones et al. 2006 / Kaushansky et al. Chem and Biol 2008",0.34 µM
same,Kd,"SH2 and PTB domains; Protein SHC2-PTB, ref Jones et al. 2006 / Kaushansky et al. Chem and Biol 2008",0.43 µM
same,Kd,"SH2 and PTB domains; Protein SHF, ref Jones et al. 2006 / Kaushansky et al. Chem and Biol 2008",0.34 µM
same,Kd,"SH2 and PTB domains; Protein SLA2, ref Jones et al. 2006 / Kaushansky et al. Chem and Biol 2008",1.44 µM
same,Kd,"SH2 and PTB domains; Protein SRC, ref Jones et al. 2006 / Kaushansky et al. Chem and Biol 2008",0.035 µM
same,Kd,"SH2 and PTB domains; Protein SUPT6H, ref Jones et al. 2006 / Kaushansky et al. Chem and Biol 2008",1.57 µM
same,Kd,"SH2 and PTB domains; Protein SYK-C, ref Jones et al. 2006 / Kaushansky et al. Chem and Biol 2008",0.54 µM
same,Kd,"SH2 and PTB domains; Protein SYK-N, ref Jones et al. 2006 / Kaushansky et al. Chem and Biol 2008",0.26 µM
same,Kd,"SH2 and PTB domains; Protein SYK-NC, ref Jones et al. 2006 / Kaushansky et al. Chem and Biol 2008",0.3 µM
same,Kd,"SH2 and PTB domains; Protein TEC, ref Jones et al. 2006 / Kaushansky et al. Chem and Biol 2008",0.77 µM
same,Kd,"SH2 and PTB domains; Protein TXK, ref Jones et al. 2006 / Kaushansky et al. Chem and Biol 2008",1.23 µM
same,Kd,"SH2 and PTB domains; Protein VAV2, ref Jones et al. 2006 / Kaushansky et al. Chem and Biol 2008",1.75 µM
same,Kd,"SH2 and PTB domains; Protein VAV3, ref Jones et al. 2006 / Kaushansky et al. Chem and Biol 2008",1.13 µM
same,Kd,"SH2 and PTB domains; Protein YES1, ref Jones et al. 2006 / Kaushansky et al. Chem and Biol 2008",0.045 µM
same,Kd,"SH2 and PTB domains; Protein ZAP70-NC, ref Jones et al. 2006 / Kaushansky et al. Chem and Biol 2008",1.44 µM
same,Kd,GRB7 SH2 domain; ref Jones et al. 2006 / Kaushansky et al. Chem and Biol 2008,0.53 µM
DDTFLPVPEpYINQSVPKd [ErbB1 1092],Kd,"SH2 and PTB domains; Protein ABL1, ref Jones et al. 2006 / Kaushansky et al. Mol Biosys 2008 / Kaushansky et al. Chem and Biol 2008",0.92 µM
same,Kd,"SH2 and PTB domains; Protein ABL2, ref Jones et al. 2006 / Kaushansky et al. Mol Biosys 2008 / Kaushansky et al. Chem and Biol 2008",0.15 µM
same,Kd,"SH2 and PTB domains; Protein BLK, ref Jones et al. 2006 / Kaushansky et al. Mol Biosys 2008 / Kaushansky et al. Chem and Biol 2008",0.3 µM
same,Kd,"SH2 and PTB domains; Protein GRB2, ref Jones et al. 2006 / Kaushansky et al. Mol Biosys 2008 / Kaushansky et al. Chem and Biol 2008",0.2 µM
same,Kd,"SH2 and PTB domains; Protein GRB10, ref Jones et al. 2006 / Kaushansky et al. Mol Biosys 2008 / Kaushansky et al. Chem and Biol 2008",1.3 µM
same,Kd,"SH2 and PTB domains; Protein ITK, ref Jones et al. 2006 / Kaushansky et al. Mol Biosys 2008 / Kaushansky et al. Chem and Biol 2008",0.22 µM
same,Kd,"SH2 and PTB domains; Protein NCK2, ref Jones et al. 2006 / Kaushansky et al. Mol Biosys 2008 / Kaushansky et al. Chem and Biol 2008",1.1 µM
same,Kd,"SH2 and PTB domains; Protein PIK3R1-N, ref Jones et al. 2006 / Kaushansky et al. Mol Biosys 2008 / Kaushansky et al. Chem and Biol 2008",1.08 µM
same,Kd,"SH2 and PTB domains; Protein PIK3R1-NC, ref Jones et al. 2006 / Kaushansky et al. Mol Biosys 2008 / Kaushansky et al. Chem and Biol 2008",0.67 µM
same,Kd,"SH2 and PTB domains; Protein PIK3R2-N, ref Jones et al. 2006 / Kaushansky et al. Mol Biosys 2008 / Kaushansky et al. Chem and Biol 2008",0.45 µM
same,Kd,"SH2 and PTB domains; Protein PIK3R2-NC, ref Jones et al. 2006 / Kaushansky et al. Mol Biosys 2008 / Kaushansky et al. Chem and Biol 2008",1.41 µM
same,Kd,"SH2 and PTB domains; Protein PIK3R3-N, ref Jones et al. 2006 / Kaushansky et al. Mol Biosys 2008 / Kaushansky et al. Chem and Biol 2008",0.51 µM
same,Kd,"SH2 and PTB domains; Protein PIK3R3-NC, ref Jones et al. 2006 / Kaushansky et al. Mol Biosys 2008 / Kaushansky et al. Chem and Biol 2008",1.02 µM
same,Kd,"SH2 and PTB domains; Protein PLCG2-NC, ref Jones et al. 2006 / Kaushansky et al. Mol Biosys 2008 / Kaushansky et al. Chem and Biol 2008",1.63 µM
same,Kd,"SH2 and PTB domains; Protein RASA1-N, ref Jones et al. 2006 / Kaushansky et al. Mol Biosys 2008 / Kaushansky et al. Chem and Biol 2008",0.18 µM
same,Kd,"SH2 and PTB domains; Protein SRC, ref Jones et al. 2006 / Kaushansky et al. Mol Biosys 2008 / Kaushansky et al. Chem and Biol 2008",1.79 µM
same,Kd,"SH2 and PTB domains; Protein SYK-C, ref Jones et al. 2006 / Kaushansky et al. Mol Biosys 2008 / Kaushansky et al. Chem and Biol 2008",1.92 µM
same,Kd,"SH2 and PTB domains; Protein SYK-NC, ref Jones et al. 2006 / Kaushansky et al. Mol Biosys 2008 / Kaushansky et al. Chem and Biol 2008",0.91 µM
same,Kd,"SH2 and PTB domains; Protein VAV2, ref Jones et al. 2006 / Kaushansky et al. Mol Biosys 2008 / Kaushansky et al. Chem and Biol 2008",0.54 µM
same,Kd,"SH2 and PTB domains; Protein YES1, ref Jones et al. 2006 / Kaushansky et al. Mol Biosys 2008 / Kaushansky et al. Chem and Biol 2008",0.34 µM
same,Kd,GRB7 SH2 domain; ref Jones et al. 2006 / Kaushansky et al. Mol Biosys 2008 / Kaushansky et al. Chem and Biol 2008,1.99 µM
